Reference: patent publication US20210220328A1, “PYRROLE DERIVATIVES AS ACC INHIBITORS” (Almirall, S.A., priority 2017, published 2021)

Test system: immortalized human sebocyte cell line, SZ95
Assay: In vitro assay of inhibition of lipid synthesis
Assay type: cell-based
Conditions: 48 h, SZ95 sebocytes
Procedure: In Vitro Assay of Inhibition of Lipid Synthesis
To evaluate the inhibition of lipid synthesis, the immortalized human sebocyte cell line, SZ95 (stablished by Zouboulis, C. C. et al J Invest Dermatol 1999; 113:1011-20), was treated with arachidonic acid (AA) in presence or absence of compound. Lipids were detected by using a lipid sensing fluorophore.
Compounds were dissolved in dimethylsulfoxide (DMSO) 100%. Then the stocks were serial diluted 1/3 in DMSO 100%, and this battery of solutions were diluted 1/10 in culture medium, to minimize the percentage of the DMSO over cells.
10 k cells were plated in 384 well microtiter plates and incubated at 37° C. and 5% CO2 in DMEM/F12 supplemented with 10% FBS, 1.25 ng/ml of rhEGF and GA-1000 before of compound and stimulus addition. After 24 h, compounds dissolved in culture media were added over cells, diluting the solutions prepared 1/40 in the final volume of the assay. Then, cells and compounds were preincubated for 30 min at 37° C. and 5% CO2. After this prior incubation, the lipid synthesis was induced by 75 μM of AA final solution, preparing a solution 10× in culture media. Finally, SZ95 treated were incubated for 48 h at 37° C. and 5% CO2.
Neutral lipids were measured using AdipoRed™, purchased from LONZA. To do that, cells were washed with PBS and incubated with a solution of AdipoRed™ (final dilution 1/80 in PBS) for 30 min at room temperature. After the staining process, the fluorescence intensity (FI) was quantified using a fluorescence plate reader (excitation 485 nm; emission 535).
Activity of compounds were calculated as % of inhibition considering the maximal fluorescence for AA-stimulated cells and the minimum fluorescence for unstimulated cells as controls.

[1] = 75 μM arachidonic acid, AdipoRed, Table 2, finer classes for compounds with IC50 less than 250 nM
[2] = lipid synthesis induced by 75 μM arachidonic acid, AdipoRed fluorescence, Table 1

CCCCCCCCCCCCOc1c[nH]c(C(=O)OCC(O)CO)c1Cl (stereo not drawn) [Example 84, 2,3-Dihydroxypropyl 3-chloro-4-(dodecyloxy)-1H-pyrrole-2-carboxylate]
IC50 [1]: 100 to 250 nM | IC50 [2]: < 250 nM

CCCCCCCCCCCCc1c[nH]c(C(=O)OC(C)OC(=O)OC(C)C)c1F (stereo not drawn) [Example 17, 1-((Isopropoxycarbonyl)oxy)ethyl 4-dodecyl-3-fluoro-1H-pyrrole-2-carboxylate]
IC50 [1]: < 50 nM | IC50 [2]: < 250 nM

CCCCCCCCCCCCCCC(=O)c1c[nH]c(C(=O)O)c1F [Example 91, 3-Fluoro-4-pentadecanoyl-1H-pyrrole-2-carboxylic acid]
IC50 [2]: 1000 to 5000 nM

CCCCCCCCCCCCCc1c[nH]c(C(=O)OCc2oc(=O)oc2C)c1F [Example 30, (5-Methyl-2-oxo-1,3-dioxol-4-yl)methyl 3-fluoro-4-tridecyl-1H-pyrrole-2-carboxylate]
IC50 [1]: < 50 nM | IC50 [2]: < 250 nM

CCCCCCCCCCC(C)(C)Cc1cc(Cl)c(C(=O)O)[nH]1 [Example 127, 3-Chloro-5-(2,2-dimethyldodecyl)-1H-pyrrole-2-carboxylic acid]
IC50 [1]: < 50 nM | IC50 [2]: 250 to 1000 nM

CCCCCCCCCCCCOc1c[nH]c(C(=O)OCC(=O)N(C)CC(=O)OCC)c1 [Example 9, 2-((2-Ethoxy-2-oxoethyl)(methyl)amino)-2-oxoethyl 4-(dodecyloxy)-1H-pyrrole-2-carboxylate]
IC50 [2]: 1000 to 5000 nM

CCCCCCCCCCCCOc1c[nH]c(C(=O)O)c1F [Example 73, 4-(Dodecyloxy)-3-fluoro-1H-pyrrole-2-carboxylic acid]
IC50 [1]: < 50 nM | IC50 [2]: < 250 nM

CCCCCCCCCCCCc1cc(Cl)c(C(=O)OCCOCCOCC)[nH]1 [Example 114, 2-(2-Ethoxyethoxy)ethyl 3-chloro-5-dodecyl-1H-pyrrole-2-carboxylate]
IC50 [2]: 1000 to 5000 nM

CCCCCCCCCCCCCc1c[nH]c(C(=O)OC2CCCCC2)c1F [Example 25, Cyclohexyl 3-fluoro-4-tridecyl-1H-pyrrole-2-carboxylate]
IC50 [2]: 1000 to 5000 nM

CCCCCCCCCCCCCCOc1c[nH]c(C(=O)O)c1Cl [Example 90, 3-Chloro-4-(tetradecyloxy)-1H-pyrrole-2-carboxylic acid]
IC50 [1]: 50 to 100 nM | IC50 [2]: < 250 nM

CCCCCCCCCCCCCc1c[nH]c(C(=O)OCCCCCCCCO)c1F [Example 38, 8-Hydroxyoctyl 3-fluoro-4-tridecyl-1H-pyrrole-2-carboxylate]
IC50 [2]: 250 to 1000 nM

CCCCCCCCCCCCOc1c[nH]c(C(=O)OC(C)OC(=O)OC(C)C)c1 (stereo not drawn) [Example 8, 1-((Isopropoxycarbonyl)oxy)ethyl 4-(dodecyloxy)-1H-pyrrole-2-carboxylate]
IC50 [1]: 100 to 250 nM | IC50 [2]: < 250 nM

CCCCCCCCCCCCOc1c[nH]c(C(=O)OC(C)OC(=O)OCCOCCOCC)c1Cl (stereo not drawn) [Example 86, 4-Oxo-3,5,8,11-tetraoxatridecan-2-yl 3-chloro-4-(dodecyloxy)-1H-pyrrole-2-carboxylate]
IC50 [1]: < 50 nM | IC50 [2]: < 250 nM

CCCCCCCCCCCCOc1c[nH]c(C(=O)OCCOCCOCCOCCO)c1 [Example 7, 2-(2-(2-(2-Hydroxyethoxy)ethoxy)ethoxy)ethyl 4-(dodecyloxy)-1H-pyrrole-2-carboxylate]
IC50 [2]: > 5000 nM

CCCCCCCCCCCCc1c[nH]c(C(=O)OCC(F)(F)F)c1F [Example 15, 2,2,2-Trifluoroethyl 4-dodecyl-3-fluoro-1H-pyrrole-2-carboxylate]
IC50 [1]: < 50 nM | IC50 [2]: < 250 nM

CCCCCCCCCCCCc1cc(Cl)c(C(=O)OC(C)OC(=O)OCCOCCOCC)[nH]1 (stereo not drawn) [Example 117, 4-Oxo-3,5,8,11-tetraoxatridecan-2-yl 3-chloro-5-dodecyl-1H-pyrrole-2-carboxylate]
IC50 [1]: 100 to 250 nM | IC50 [2]: < 250 nM

CCCCCCCCCCCCc1cc(Cl)c(C(=O)O)[nH]1 [Example 65, 3-Chloro-5-dodecyl-1H-pyrrole-2-carboxylic acid]
IC50 [1]: 50 to 100 nM | IC50 [2]: < 250 nM

CCCCCCCCCCCOc1c[nH]c(C(=O)OCCOCCOCC)c1F [Example 104, 2-(2-Ethoxyethoxy)ethyl 3-fluoro-4-(undecyloxy)-1H-pyrrole-2-carboxylate]
IC50 [1]: 100 to 250 nM | IC50 [2]: < 250 nM

CCCCCCCCCCCCc1cc(Cl)c(C(=O)OCC(O)CO)[nH]1 (stereo not drawn) [Example 118, 2,3-Dihydroxypropyl 3-chloro-5-dodecyl-1H-pyrrole-2-carboxylate]
IC50 [2]: 250 to 1000 nM

CCCCCCCCCCCOc1c[nH]c(C(=O)O)c1Cl [Example 79, 3-Chloro-4-(undecyloxy)-1H-pyrrole-2-carboxylic acid]
IC50 [1]: < 50 nM | IC50 [2]: < 250 nM

CCCCCCCCCCCCCc1c[nH]c(C(=O)OC(C)OC(=O)OC2CCCCC2)c1F (stereo not drawn) [Example 47, 1-(((Cyclohexyloxy)carbonyl)oxy)ethyl 3-fluoro-4-tridecyl-1H-pyrrole-2-carboxylate]
IC50 [1]: 50 to 100 nM | IC50 [2]: < 250 nM

CCCCCCCCCCCCc1cc(Cl)c(C(=O)OC(C)OC(=O)OC(C)C)[nH]1 (stereo not drawn) [Example 115, 1-((Isopropoxycarbonyl)oxy)ethyl 3-chloro-5-dodecyl-1H-pyrrole-2-carboxylate]
IC50 [1]: 100 to 250 nM | IC50 [2]: < 250 nM

CCCCCCCCCCCCCc1c[nH]c(C(=O)OC(C)OC(=O)OCCOC)c1Cl (stereo not drawn) [Example 111, 1-(((2-methoxyethoxy)carbonyl)oxy)ethyl 3-chloro-4-tridecyl-1H-pyrrole-2-carboxylate]
IC50 [1]: 100 to 250 nM | IC50 [2]: < 250 nM

CCOCCCCCCCCCCCCc1c[nH]c(C(=O)O)c1F [Example 92, 4-(12-Ethoxydodecyl)-3-fluoro-1H-pyrrole-2-carboxylic acid]
IC50 [1]: < 50 nM | IC50 [2]: < 250 nM

CCCCCCCCCCCCCOc1c[nH]c(C(=O)O)c1Cl [Example 89, 3-Chloro-4-(tridecyloxy)-1H-pyrrole-2-carboxylic acid]
IC50 [1]: < 50 nM | IC50 [2]: < 250 nM

CCCCCCCCCCCCOc1c[nH]c(C(=O)OCC(F)(F)F)c1Cl [Example 81, 2,2,2-Trifluoroethyl 3-chloro-4-(dodecyloxy)-1H-pyrrole-2-carboxylate]
IC50 [1]: 100 to 250 nM | IC50 [2]: < 250 nM

CCCCCCCCCCCCCc1c[nH]c(C(=O)O)c1Br [Example 68, 3-Bromo-4-tridecyl-1H-pyrrole-2-carboxylic acid]
IC50 [2]: 250 to 1000 nM

CCCCCCCCCCc1c[nH]c(C(=O)O)c1Cl [Example 56, 3-Chloro-4-decyl-1H-pyrrole-2-carboxylic acid]
IC50 [1]: 50 to 100 nM | IC50 [2]: < 250 nM

CCCCCCCCCCCCCc1c[nH]c(C(=O)OC(C)OC(=O)OC(C)C)c1Cl (stereo not drawn) [Example 110, 1-((Isopropoxycarbonyl)oxy)ethyl 3-chloro-4-tridecyl-1H-pyrrole-2-carboxylate]
IC50 [1]: 100 to 250 nM | IC50 [2]: < 250 nM

CCCCCCCCCCCCCCCCCCc1cc(F)c(C(=O)O)[nH]1 [Example 125, 3-Fluoro-5-octadecyl-1H-pyrrole-2-carboxylic acid]
IC50 [2]: < 250 nM

CCCCCCCCCCCc1cc(Cl)c(C(=O)O)[nH]1 [Example 64, 3-Chloro-5-undecyl-1H-pyrrole-2-carboxylic acid]
IC50 [1]: 50 to 100 nM | IC50 [2]: < 250 nM

CCCCCCCCCCCCCCCc1c[nH]c(C(=O)O)c1F [Example 53, 3-Fluoro-4-pentadecyl-1H-pyrrole-2-carboxylic acid]
IC50 [1]: < 50 nM | IC50 [2]: < 250 nM

CCCCCCCCCCCCSc1c[nH]c(C(=O)O)c1F [Example 76, 4-(Dodecylthio)-3-fluoro-1H-pyrrole-2-carboxylic acid]
IC50 [2]: 1000 to 5000 nM

CCCCCCCCCCCCCCCCc1c[nH]c(C(=O)O)c1Cl [Example 63, 3-Chloro-4-hexadecyl-1H-pyrrole-2-carboxylic acid]
IC50 [2]: 250 to 1000 nM

CCCCCCCCCCCCCOc1c[nH]c(C(=O)O)c1F [Example 74, 3-Fluoro-4-(tridecyloxy)-1H-pyrrole-2-carboxylic acid]
IC50 [1]: < 50 nM | IC50 [2]: < 250 nM

CCCCCCCCCCCCCc1c[nH]c(C(=O)OC(C)OC(=O)OCc2ccccc2)c1F (stereo not drawn) [Example 48, 1-(((Benzyloxy)carbonyl)oxy)ethyl 3-fluoro-4-tridecyl-1H-pyrrole-2-carboxylate]
IC50 [1]: < 50 nM | IC50 [2]: < 250 nM

CCCCCCCCCCCCOc1c[nH]c(C(=O)OCC)c1 [Example 2, Ethyl 4-(dodecyloxy)-1H-pyrrole-2-carboxylate]
IC50 [2]: > 5000 nM

CCCCCCCCCCCCCc1c[nH]c(C(=O)OCC(F)(F)F)c1F [Example 27, 2,2,2-Trifluoroethyl 3-fluoro-4-tridecyl-1H-pyrrole-2-carboxylate]
IC50 [1]: < 50 nM | IC50 [2]: < 250 nM

CCCCCCCCCCCCc1cc(C#N)c(C(=O)O)[nH]1 [Example 129, 3-Cyano-5-dodecyl-1H-pyrrole-2-carboxylic acid]
IC50 [2]: 1000 to 5000 nM

CCCCCCCCCCCCOc1c[nH]c(C(=O)OCCCCCCCCCO)c1Cl [Example 82, 9-Hydroxynonyl 3-chloro-4-(dodecyloxy)-1H-pyrrole-2-carboxylate]
IC50 [1]: 100 to 250 nM | IC50 [2]: < 250 nM

CCCCCCCCCC(F)(F)CCc1cc(Cl)c(C(=O)O)[nH]1 [Example 128, 3-Chloro-5-(3,3-difluorododecyl)-1H-pyrrole-2-carboxylic acid]
IC50 [1]: < 50 nM | IC50 [2]: 250 to 1000 nM
